The subject of experiment [1] is T1, NeNaC2.
T1 construct: full length, homomeric in Xenopus laevis oocytes (pRSSP vector, cRNA); residues H141 and G516 (DEG position)
The experiment can be described thus: two-electrode voltage clamp, Xenopus oocytes. Format: cell-based, Nematostella vectensis. Conditions: channel activated with pH 6.0, -70 mV. On the technique in general: Two-electrode voltage clamp holds a large cell at a set potential and records current.

Experiment [2] deals with T2, NeNaC8.
T2 construct: full length, homomeric in Xenopus laevis oocytes (pRSSP vector, cRNA)
The experiment can be described thus: two-electrode voltage clamp, Xenopus oocytes. It is filed as cell-based, Nematostella vectensis. The conditions noted are these: -70 mV, read-out: Apparent IC50.

For orientation: IC50 means the concentration needed to halve the response being measured.

Read-outs that look alike come from different tables or passages of the source.

Turning to `N=C(N)NC(=O)c1nc(Cl)c(N)nc1N` [amiloride], the 50% inhibitory concentration (IC50) in experiment [1] (inhibition incomplete even at high concentrations, n = 10) came out at 1300 ± 2300 µM; in experiment [2] (channel opened by bath with 100 nM Ca2+, n = 11) it was 310 ± 180 µM.

In the case of `N=C(N)c1ccc(N=NNc2ccc(C(=N)N)cc2)cc1` [diminazene], the 50% inhibitory concentration (IC50) in experiment [1] (complete inhibition at high concentrations, n = 14) turned out to be 2.4 ± 0.9 µM; in experiment [2] (1.8 mM Ca2+ (standard bath), pH 7.4, not competitive with Ca2+, n = 14), 0.124 ± 0.075 µM.

Source of the values: publication PMC9822975, “Functional analysis in a model sea anemone reveals phylogenetic complexity and a role in cnidocyte discharge of DEG/ENaC ion channels” (Communications Biology, 2023).
